Patent US9181234B2, “Antibacterial compounds” (priority 2010, dated 2015)
≈ marks a conversion by molar mass, not a printed value.

How the values were obtained:
[1] = test system: Staphylococcus aureus (Isolate ID ATCC 29213); test: Antibacterial activity, MIC, S. aureus; format: cell-based; conditions: Staphylococcus aureus, ATCC29213, Gram positive strain; broth microdilution or agar dilution
Protocol: (§1) Bacterial Assay: Determination of Antibacterial Activity
(§2) Compounds of the invention were tested for antimicrobial activity by susceptibility testing in liquid or on solid media. MICs for compounds against each strain were determined by the broth microdilution or agar dilution method according to the guidelines of the Clinical Laboratories and Standards Institute, formerly the National Committee for Clinical Laboratory Standards (Clinical Laboratories and Standards Institute. Methods for Dilution Antimicrobial Susceptibility Tests for Bacteria That Grow Aerobically; Approved Standard—Seventh Edition. Document M7-A7. CLSI, Wayne, Pa., 2006; Clinical Laboratories and Standards Institute. The gram positive bacterial strains tested include S. aureus (Staphylococcus aureus (Isolate ID ATCC 29213)), E. faecalis (Enterococcus faecalis (Isolate ID ATCC 29212)) and S. pyogenes (Streptococcus pyogenes (Isolate ID ATCC 51339)). The gram negative bacterial strains tested include H. influenzae (Haemophilus influenzae (Isolate ID ATCC 49247))

[2] = test system: Streptococcus pyogenes (Isolate ID ATCC 51339); test: Antibacterial activity, MIC, S. pyogenes; format: cell-based; conditions: Streptococcus pyogenes, ATCC51339, Gram positive strain; broth microdilution or agar dilution
Protocol: as §1, §2

[3] = physchem; conditions: kinetic from dmso stock
Protocol: Turbimetric Assay: Determination of Solubility
The solubility of the compounds was measured using a turbidimetric method. A series of doubling dilutions of compounds were prepared in neat dimethyl sulfoxide (DMSO). 5 μl samples were diluted twenty-fold into 95 μl volumes of 100 mM citrate buffer (pH 4), phosphate buffered saline (PBS, pH 7.4) or carbonate-bicarbonate buffer (pH 9) in microtitre assay plates and allowed to reach equilibrium at room temperature for 24 hours. The absorbance within each well of the plate was read spectrophotometrically at a wavelength of 620 nm. A precipitate forms when the maximum aqueous solubility level is reached. The value quoted is the highest concentration where the compound was in solution i.e. where no measurable precipitate was present. […] ND=not determined

[4] = test system: Haemophilus influenzae (Isolate ID ATCC 49247); test: Antibacterial activity, MIC, H. influenzae; format: cell-based; conditions: Haemophilus influenzae, ATCC49247; Gram negative strain; broth microdilution or agar dilution
Protocol: as §1, §2

[5] = pH 7.4, aqueous buffer, Solubility (pH 7.4)
[6] = pH 7.4, aqueous buffer, Solubility Range
[7] = pH 9, aqueous buffer, Max Solubility
[8] = pH 9, aqueous buffer, Solubility Range (maximum solubility)
[9] = pH 7.4, aqueous buffer, Max Solubility
[10] = pH 7.4, aqueous buffer, Solubility Range (maximum solubility)

SMILES | MIC [1] | MIC [2] | solubility at 24 h [3, 5] | solubility at 24 h [3, 6] | solubility at 24 h [3, 7] | solubility at 24 h [3, 8] | MIC [4] | solubility at 24 h ([3]; pH 7.4, aqueous buffer, Solubility (pH 7.4), pH 7.4 (PBS), 24 hours at room temperature, turbidimetric) | solubility at 24 h ([3]; pH 7.4, aqueous buffer, Solubility Range, pH 7.4) | solubility at 24 h ([3]; pH 9, aqueous buffer, Max Solubility, maximum of pH 4, 7.4 and 9, shown at pH 9) | solubility at 24 h ([3]; pH 9, aqueous buffer, Solubility Range (maximum solubility), maximum of pH 4, 7.4 and 9, shown at pH 9) | solubility at 24 h [3, 9] | solubility at 24 h [3, 10]
CCNC(=O)Nc1nc2cc(-c3cnc(N4CCC(C)(C(=O)O)CC4)nc3)cc(/C(C)=N/OCCO)c2s1 [Compound 187] | 1 to 16 µg/mL (≈ 1.85 to 29.5 µM) | 0.25 to 1 µg/mL (≈ 0.462 to 1.85 µM) | ≥ 800 µg/mL | > 800 µg/mL | ≥ 800 µg/mL | > 800 µg/mL | 1 to 16 µg/mL (≈ 1.85 to 29.5 µM) | – | – | – | – | – | –
CCNC(=O)Nc1nc2cc(-c3cnc(N4CCC(C)(C(=O)O)CC4)nc3)cc(/C(C)=N/OCC(F)(F)F)c2s1 [Compound 94] | 1 to 16 µg/mL (≈ 1.73 to 27.6 µM) | 1 to 16 µg/mL (≈ 1.73 to 27.6 µM) | ≥ 800 µg/mL | > 800 µg/mL | – | – | > 16 µg/mL | – | – | – | – | ≥ 800 µg/mL | > 800 µg/mL
CCNC(=O)Nc1nc2cc(-c3cnc(N4CCC(C)(C(=O)O)CC4)nc3)cc(CN3CCOCC3)c2s1 [Compound 158, 1-[5-[2-(ethylcarbamoylamino)-7-(morpholinomethyl)-1,3-benzothiazol-5-yl]pyrimidin-2-yl]-4-methyl-piperidine-4-carboxylic acid] | 1 to 16 µg/mL (≈ 1.85 to 29.6 µM) | 1 to 16 µg/mL (≈ 1.85 to 29.6 µM) | ≥ 800 µg/mL | > 800 µg/mL | – | – | > 16 µg/mL | – | – | – | – | ≥ 800 µg/mL | > 800 µg/mL
CCNC(=O)Nc1nc2cc(-c3cnc(N4CCC(C)(C(=O)O)CC4)nc3)cc(/C=N/OCC)c2s1 [Compound 204] | 0.25 to 1 µg/mL (≈ 0.489 to 1.95 µM) | 0.25 to 1 µg/mL (≈ 0.489 to 1.95 µM) | ≥ 800 µg/mL | > 800 µg/mL | – | – | 1 to 16 µg/mL (≈ 1.95 to 31.3 µM) | – | – | – | – | ≥ 800 µg/mL | > 800 µg/mL
CCNC(=O)Nc1nc2cc(-c3cnc(N4CCC(CC)(C(=O)O)CC4)nc3)cc(-c3ncccn3)c2s1 [Compound 228] | ≤ 0.25 µg/mL | ≤ 0.25 µg/mL | 200 µg/mL (≈ 375 µM) | 12.5 to 400 µg/mL (≈ 23.5 to 751 µM) | – | – | 1 to 16 µg/mL (≈ 1.88 to 30 µM) | – | – | – | – | 200 µg/mL (≈ 375 µM) | 12.5 to 400 µg/mL (≈ 23.5 to 751 µM)

More lines, now with the values ahead:

MIC [1] | MIC [2] | solubility at 24 h [3, 5] | solubility at 24 h [3, 6] | solubility at 24 h [3, 7] | solubility at 24 h [3, 8] | MIC [4] | solubility at 24 h ([3]; pH 7.4, aqueous buffer, Solubility (pH 7.4), pH 7.4 (PBS), 24 hours at room temperature, turbidimetric) | solubility at 24 h ([3]; pH 7.4, aqueous buffer, Solubility Range, pH 7.4) | solubility at 24 h ([3]; pH 9, aqueous buffer, Max Solubility, maximum of pH 4, 7.4 and 9, shown at pH 9) | solubility at 24 h ([3]; pH 9, aqueous buffer, Solubility Range (maximum solubility), maximum of pH 4, 7.4 and 9, shown at pH 9) | solubility at 24 h [3, 9] | solubility at 24 h [3, 10] | SMILES
≤ 0.25 µg/mL | ≤ 0.25 µg/mL | – | – | – | – | 1 to 16 µg/mL (≈ 1.94 to 31.1 µM) | 100 µg/mL (≈ 194 µM) | 12.5 to 400 µg/mL (≈ 24.3 to 777 µM) | 200 µg/mL (≈ 389 µM) | 12.5 to 400 µg/mL (≈ 24.3 to 777 µM) | – | – | CCNC(=O)Nc1nc2cc(-c3cnc(N4CCC(CC)(C(=O)O)CC4)nc3)cc(-c3ccccn3)c2[nH]1 [Compound 229, 4-Ethyl-1-(5-(2-(3-ethylureido)-7-(pyridin-2-yl)-1H-benzoimidazol-5-yl)pyrimidin-2-yl)piperidine-4-carboxylic acid]
> 16 µg/mL | > 16 µg/mL | 400 µg/mL (≈ 722 µM) | 400 to 800 µg/mL (≈ 722 to 1440 µM) | – | – | > 16 µg/mL | – | – | – | – | 400 µg/mL (≈ 722 µM) | 400 to 800 µg/mL (≈ 722 to 1440 µM) | CCNC(=O)Nc1nc2cc(-c3cnc(N4CCC(C)(C(=O)O)CC4)nc3)cc(C(=O)N3CCOCC3)c2s1 [Compound 159, 1-[5-[2-(ethylcarbamoylamino)-7-(morpholine-4-carbonyl)-1,3-benzothiazol-5-yl]pyrimidin-2-yl]-4-methyl-piperidine-4-carboxylic acid]
1 to 16 µg/mL (≈ 1.68 to 26.9 µM) | ≤ 0.25 µg/mL | ≥ 800 µg/mL | > 800 µg/mL | – | – | 1 to 16 µg/mL (≈ 1.68 to 26.9 µM) | – | – | – | – | ≥ 800 µg/mL | > 800 µg/mL | CCNC(=O)Nc1nc2cc(-c3cnc(N4CCC(C)(C(=O)NS(C)(=O)=O)CC4)nc3)cc(-c3ccccn3)c2s1 [Compound 186]
≤ 0.25 µg/mL | ≤ 0.25 µg/mL | 200 µg/mL (≈ 367 µM) | 12.5 to 400 µg/mL (≈ 22.9 to 733 µM) | ≥ 800 µg/mL | > 800 µg/mL | 1 to 16 µg/mL (≈ 1.83 to 29.3 µM) | – | – | – | – | – | – | CCNC(=O)Nc1nc2cc(-c3cnc(N(C)C4CCC(C)(C(=O)O)CC4)nc3)cc(-c3ccccn3)c2s1 (centres unmarked) [Compound 218]
≤ 0.25 µg/mL | ≤ 0.25 µg/mL | ≥ 800 µg/mL | > 800 µg/mL | – | – | 0.25 to 1 µg/mL (≈ 0.47 to 1.88 µM) | – | – | – | – | ≥ 800 µg/mL | > 800 µg/mL | CCNC(=O)Nc1nc2cc(-c3cnc(NC4CCC(C)(C(=O)O)CC4)nc3)cc(-c3ccccn3)c2s1 (centres unmarked) [Compound 222]
0.25 to 1 µg/mL (≈ 0.455 to 1.82 µM) | 1 to 16 µg/mL (≈ 1.82 to 29.1 µM) | 100 µg/mL (≈ 182 µM) | 12.5 to 400 µg/mL (≈ 22.7 to 728 µM) | 200 µg/mL (≈ 364 µM) | 12.5 to 400 µg/mL (≈ 22.7 to 728 µM) | 1 to 16 µg/mL (≈ 1.82 to 29.1 µM) | – | – | – | – | – | – | CCNC(=O)Nc1nc2cc(-c3cnc(N4CCC(C)(C(=O)O)CC4)nc3)c(OC)c(Br)c2s1 [Compound 208, 1-[5-[7-bromo-2-(ethylcarbamoylamino)-6-methoxy-1,3-benzothiazol-5-yl]pyrimidin-2-yl]-4-methyl-piperidine-4-carboxylic acid]
